In paper PMC4128814, “A High Throughput Screen Identifies Potent and Selective Inhibitors to Human Epithelial 15-Lipoxygenase-2” (PLoS ONE, 2014):

molecular target: T1, 15-LOX-2 (Homo sapiens, UniProt O15296); assay: Lipoxygenase UV-Vis assay, 15-LOX-2; format: biochemical; conditions: not given
T1 construct: His6 (N); made in house
T1 sequence (O15296 1-676): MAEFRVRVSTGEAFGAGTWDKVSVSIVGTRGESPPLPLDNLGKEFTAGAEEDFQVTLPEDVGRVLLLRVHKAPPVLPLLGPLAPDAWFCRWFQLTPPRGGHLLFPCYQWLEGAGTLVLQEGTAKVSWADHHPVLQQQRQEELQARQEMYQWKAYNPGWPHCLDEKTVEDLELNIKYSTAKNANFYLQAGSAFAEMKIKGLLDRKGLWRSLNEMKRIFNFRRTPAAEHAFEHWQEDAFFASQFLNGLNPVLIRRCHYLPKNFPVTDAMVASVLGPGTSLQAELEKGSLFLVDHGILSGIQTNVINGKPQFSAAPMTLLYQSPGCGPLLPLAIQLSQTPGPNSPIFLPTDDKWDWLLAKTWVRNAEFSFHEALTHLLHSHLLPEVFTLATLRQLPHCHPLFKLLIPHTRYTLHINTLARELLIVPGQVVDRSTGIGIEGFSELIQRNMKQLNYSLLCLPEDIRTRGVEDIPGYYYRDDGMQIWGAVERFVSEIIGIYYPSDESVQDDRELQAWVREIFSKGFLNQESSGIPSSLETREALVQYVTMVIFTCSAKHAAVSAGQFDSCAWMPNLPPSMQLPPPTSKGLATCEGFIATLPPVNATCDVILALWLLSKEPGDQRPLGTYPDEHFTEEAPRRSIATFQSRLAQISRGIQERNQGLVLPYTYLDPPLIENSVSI
Method: The reactions were initiated by adding 200 nM 15-LOX-2, 30 nM 12-LOX, 40 nM 15-LOX-1, or approximately 100–300 nM (5–10 µL) of 5-LOX crude extract to a cuvette with 2 mL reaction buffer, constantly stirred using a magnetic stir bar at room temperature (22°C). Reaction buffers used for various LOX isozymes were as follows: 25 mM HEPES (pH 7.3), 0.3 mM CaCl2, 0.1 mM EDTA, 0.2 mM ATP, 0.01% Triton X-100, 10 µM AA for the crude, ammonium sulfate precipitated 5-LOX; and 25 mM HEPES (pH 7.5), 0.01% Triton X-100, 10 µM AA for 15-LOX-2, 15-LOX-1, and 12-LOX. The substrate concentration was quantitatively determined by allowing the enzymatic reaction to go to completion in the presence of 15-LOX-2. […] The data were then plotted against inhibitor concentration, followed by a hyperbolic saturation curve fit (assuming total enzyme concentration [E]≪IC50). […] All inhibitors were stored at −20°C in DMSO. NDGA was utilized as positive control for the selectivity assays for the various LOX isozymes.
Once the two lead compounds were identified, a limited series of related compounds were identified and screened to investigate structure/activity relationships (Figure 3). […] We are currently exploring this line of inquiry.

Row | SMILES | IC50 [µM]
1 | O=[N+]([O-])c1cc(-c2nnc(C34CC5CC(CC(C5)C3)C4)o2)cc([N+](=O)[O-])c1 [MLS000544312] | > 100

same assay, conditions: 25 µM inhibitor, 15-LOX-2, 10 µM AA; read-out: % Inhibition at 25 μM

Row | SMILES | inhibition at 25 µM [%]
2 | c1cncc(-c2nnc(C3CCCCC3)o2)c1 [MLS000033229] | 4
3 | CC(=O)Nc1ccc(C(=O)CSc2ncn(-c3ccccc3)n2)cc1 [MLS000108839] | 0
4 | Clc1ccc(-c2nnc(CCc3ccccc3)o2)c(Cl)c1 [MLS000325223] | 4
5 | O=[N+]([O-])c1cccc(-c2nnc(C34CC5CC(CC(C5)C3)C4)o2)c1 [MLS000585389] | 14
6 | Cc1ccc(NC(=O)CSc2ncn(-c3ccccc3)n2)cc1C [MLS000594570] | 0
7 | CCC1CCC(c2nnc(-c3ccc([N+](=O)[O-])cc3)o2)CC1 (stereo not shown) [MLS000723362] | 5
8 | CCCc1nnc(-c2ccc(OC)cc2)o1 [MLS000756111] | 0
9 | Clc1ccc(-c2nnc(C3CC3)o2)cc1 [MLS000859524] | 4
10 | O=C(CCc1nnc(-c2ccccc2)o1)c1ccc(Cl)cc1 [MLS001019001] | 6
11 | O=C(c1nnc(-c2ccccc2)o1)C1CC1 [MLS001033918] | 3

The next lines start with the values.

Row | inhibition at 25 µM [%] | SMILES
12 | 56 | c1ccc(CSc2ncn(-c3ccccc3)n2)cc1 [MLS000108825]
13 | 94 | Clc1ccc(CSc2ncn(-c3ccccc3)n2)cc1 [MLS000550104]
14 | 53 | Clc1ccccc1CSc1ncn(-c2ccccc2)n1 [MLS000550113]
15 | 28 | CCC1CCC(c2nnc(-c3ccc(Br)cc3)o2)CC1 (stereo not shown) [MLS000578382]
16 | 65 | Clc1cccc(CSc2ncn(-c3ccccc3)n2)c1 [MLS000594591]
17 | 66 | O=C(c1nnc(-c2ccc(Cl)cc2)o1)C1CCCC1 [MLS001007221]

same assay, conditions: 15-LOX-2

Row | potency relative to parent compound | SMILES
18 | approximately 4 fold | Clc1ccc(CSc2ncn(-c3ccccc3)n2)cc1 [MLS000550104]
19 | comparable activity | O=C(c1nnc(-c2ccc(Cl)cc2)o1)C1CCCC1 [MLS001007221]

same assay, conditions: read-out: 15-LOX-2 IC50

Row | SMILES | IC50 [µM]
20 | c1cncc(-c2nnc(C3CCCCC3)o2)c1 [MLS000033229] | > 100
21 | CC(=O)Nc1ccc(C(=O)CSc2ncn(-c3ccccc3)n2)cc1 [MLS000108839] | > 100
22 | Clc1ccc(-c2nnc(CCc3ccccc3)o2)c(Cl)c1 [MLS000325223] | > 100
23 | O=[N+]([O-])c1cccc(-c2nnc(C34CC5CC(CC(C5)C3)C4)o2)c1 [MLS000585389] | > 100
24 | Cc1ccc(NC(=O)CSc2ncn(-c3ccccc3)n2)cc1C [MLS000594570] | > 100
25 | CCC1CCC(c2nnc(-c3ccc([N+](=O)[O-])cc3)o2)CC1 (stereo not shown) [MLS000723362] | > 100
26 | CCCc1nnc(-c2ccc(OC)cc2)o1 [MLS000756111] | > 100
27 | Clc1ccc(-c2nnc(C3CC3)o2)cc1 [MLS000859524] | > 100
28 | O=C(CCc1nnc(-c2ccccc2)o1)c1ccc(Cl)cc1 [MLS001019001] | > 100
29 | O=C(c1nnc(-c2ccccc2)o1)C1CC1 [MLS001033918] | > 100

The next lines start with the values.

Row | IC50 [µM] | SMILES
30 | 6.4 | c1ccc(CSc2ncn(-c3ccccc3)n2)cc1 [MLS000108825]
31 | 0.74 | Clc1ccc(CSc2ncn(-c3ccccc3)n2)cc1 [MLS000550104]
32 | 9 | Clc1ccccc1CSc1ncn(-c2ccccc2)n1 [MLS000550113]
33 | > 50 | CCC1CCC(c2nnc(-c3ccc(Br)cc3)o2)CC1 (stereo not shown) [MLS000578382]
34 | 5.4 | Clc1cccc(CSc2ncn(-c3ccccc3)n2)c1 [MLS000594591]
35 | 1.1 | O=C(c1nnc(-c2ccc(Cl)cc2)o1)C1CCCC1 [MLS001007221]

same assay, conditions: read-out: % Inhibition at 25 μM

Row | SMILES | inhibition at 25 µM [%]
36 | O=[N+]([O-])c1cc(-c2nnc(C34CC5CC(CC(C5)C3)C4)o2)cc([N+](=O)[O-])c1 [MLS000544312] | 0

molecular target: T1, 15-LOX-2; assay: not given; conditions: control molecules known not to inhibit 15-LOX-2; cited from earlier work

Row | SMILES | IC50 [µM]
37 | CC(=O)NC(c1cccs1)c1cc(Br)c2cccnc2c1O (stereo not shown) [ML127] | > 100
